Results published in US7128895B2, “Use of bile acid derivatives conjugated with metal ion chelated complexes for the diagnostic assessment of microvascular permeability” (Bracco Imaging S.p.A., priority 2000, dated 2006).
“Also recorded” adds a separate entry of the source.

Assay: Urinary and faecal excretion screening of an intravenously administered contrast agent
Format: in vivo
Settings: rats
Procedure: Experimental Model for the Urinary and Faecal Excretion Screening of an Intravenously Administered Contrast Agent
The experimentation is performed on 6 rats.
The rats are individually housed in metabolic cages and urine and faeces are collected daily, for 7 days after administration. In particular faeces and urine are collected at the following time periods: 0 to 24 h,and every 24 hours up to 7 days.
The animals are killed by decapitation at 7 days post-dosing and animals blood is collected in heparinised test tubes and then centrifuged for 15 min at 3500·g to separate the plasma. After bleeding, liver, spleen, femurs and kidneys are collected and weighted to evaluate residual content of Gd in the organs. Residual gadolinium concentration in the organic samples is determined by inductively-coupled plasma atomic emission spectrometry (ICP-AES) with a Jobin-Yvon Mod 24 spectrometer
Excretion Screening of Rats Injected with B22956/1.
The screening is performed using the contrast compound as 0.25M solution. The agent in intravenously injected in 6 rats with single doses of 0.1 and 1.0 mmol·kg^−1 of animal body weight.

[1] = 0.1 mmol·kg^-1 intravenous, 7 days
[2] = 1.0 mmol·kg^-1 intravenous, 0 to 7 days
[3] = 1.0 mmol·kg^-1 intravenous, within 24 h after injection

cumulative urinary and faecal elimination within 7 days (0.1 mmol·kg^-1 intravenous): 94 to 102 % of the ID
average cumulative amount of gadolinium recovered in faeces [1]: 88.2±7.9 % of the injected dose (ID)
average cumulative amount of gadolinium recovered in urine [1]: 9.0±3.7 % of the ID
injected dose recovered in the faeces within 24 h (0.1 mmol·kg^-1 intravenous, within 24 h after injection): ~87 % of the injected dose
cumulative urinary and faecal elimination within 7 days (1.0 mmol·kg^-1 intravenous): 89 to 92 % of the ID
gadolinium recovered in faeces, cumulative amount [2]: 39.7±1.4 % of the ID
gadolinium recovered in urine, cumulative amount [2]: 52.7 % of the ID
injected dose recovered in the faeces within 24 h [3]: about 37 % of ID
injected dose recovered in the urine within 24 h [3]: ~48 % of the injected dose
residual Gd in the plasma as fraction of injected dose (7 days after administration, plasma volume taken as 40 mL/Kg): less than 0.04 % of the injected dose
Substance: gadolinium complex of the [3(S),5,12]-3-[[4-[bis[2-[bis(carboxymethyl)-amino]ethyl]amino]-4-carboxy-1-oxobutyl]amino]-12-hydroxycholan-24-oic acid [B22956/1]
residual Gd in plasma, liver, spleen, femurs and kidneys (7 days after 0.1 or 1.0 mmol·kg^-1): almost total absence of gadolinium residues; also recorded: very low or negligible
residual content of Gd in plasma (7 days, both administered doses, ICP-AES detection limit): < 0.05 μg gadolinium/mL
